Experimental data: US5183821A, “Method for treating leukemias using N-(2-dimethylaminoethyl)-3-amino-1,8-naphthalimide for treating leukemias and solid tumors” (priority 1991, dated 1993)
Converted amounts (≈) assume the structure as drawn.

Assays:
leukemia P388 = assay: NCI studies against leukemia P388 (Appendix 1, MDA and T/C); type: in vivo, murine; conditions: for response vs control in vivo at 60 mg/kg: P388, dose 60,00 mg/kg; for response vs control in vivo at 120 mg/kg: P388, dose 120,00 mg/kg; for response vs control in vivo at 240 mg/kg: P388, dose 240,00 mg/kg; for STATUS (activity against leukemia P388): at the dose of the same line of the appendix table; for MDA against leukemia P388 / minimal effective dose: minor active dose reaching T/C≥120; for minimal effective dose: P388; for response vs control in vivo at 30 mg/kg: P388, dose 30,00 mg/kg
Excerpt: On the other hand, murine transplantable leukemias are a good predictor of anti-leukemia activity in human beings (Kenis "Dose schedules and mode of administration of chemotherapeutic agents in man". Recent Results Cancer Res. 21, 54-61 (1969). Only those tests which use the survival times as an activity parameter are valid as predictors of antileukemia activity in human beings (for instance, leukemia p388 y L-1210), whilst "in vitro" tests (HeLa cells and other) are inappropriate (Llombart-Rodriguez, 1983). NCI data generated in the last years confirm the value of above assertions to compounds of general formula [drawing 1] as described in U.S. Pat. No. 4,204,063.
Experimental results from NCI studies against leukemia P388 are shown in an appendix (Appendix 1). In order to simplify the presentation of results we have extracted from these the minor active dose (MDA) against leukemia P388--for each compound. MDA is defined as the minor dose of the drug that reaches the minimal activity criteria of the NCI. For leukemia P388 this criteria on the basis of survival time is a minimal increase in survival of treated animals over a control resulting in a T/C≥120. In the following table the MDA for 14 examples are presented. In cases where none of the tested doses reached the MDA, the MDA is indicated as "NONE". The column "cytotoxic activity" has been extracted from U.S. Pat. No. 4,204,063. Data are presented in order of the highest to lowest cytotoxic activity.

HeLa cells = conditions: cytotoxic activity in vitro, monolayer; cited from earlier work

SMILES	response vs control in vivo at 60 mg/kg (leukemia P388; Mus musculus) [%]	response vs control in vivo at 120 mg/kg (leukemia P388; Mus musculus) [%]	response vs control in vivo at 240 mg/kg (leukemia P388; Mus musculus) [%]	STATUS (activity against leukemia P388) (leukemia P388)	MDA against leukemia P388 (leukemia P388)	ID50 in HeLa cells (HeLa cells) [µg/mL]	minimal effective dose (leukemia P388; Mus musculus) [mg/kg]	response vs control in vivo at 30 mg/kg (leukemia P388; Mus musculus) [%]	further results
CCN(CC)CCCN1C(=O)c2cccc3cc([N+](=O)[O-])cc(c23)C1=O [Example 3]	108	103	114	None dose tested	NONE	20.0 (≈ 56.3 µM)			
O=C1c2cccc3cc([N+](=O)[O-])cc(c23)C(=O)N1CCN1CCOCC1 [Example 4]	96	96	100	None dose tested	NONE	6.0 (≈ 16.9 µM)			
CCN(CC)CCN1C(=O)c2cccc3cc(N)cc(c23)C1=O [Example 10]				T/C > 120 active		3.0 (≈ 9.63 µM)	3.2		response vs control in vivo at 1 mg (leukemia P388; Mus musculus, P388, dose 1,56 mg as printed): 101%; response vs control in vivo at 1 mg (leukemia P388; Mus musculus, P388, dose 1,60 mg as printed): 100%; response vs control in vivo at 3 mg (leukemia P388; Mus musculus, P388, dose 3,12 mg as printed): 98%; response vs control in vivo at 3 mg (leukemia P388; Mus musculus, P388, dose 3,20 mg as printed): 108%; response vs control in vivo at 6 mg (leukemia P388; Mus musculus, P388, dose 6,25 mg as printed): 98%; response vs control in vivo at 6 mg (leukemia P388; Mus musculus, P388, dose 6,50 mg as printed): 107%; response vs control in vivo at 13 mg (leukemia P388; Mus musculus, P388, dose 13,00 mg as printed): 121%; response vs control in vivo at 25 mg (leukemia P388; Mus musculus, P388, dose 25,00 mg as printed): 114%; response vs control in vivo at 26 mg (leukemia P388; Mus musculus, P388, dose 26,00 mg as printed): 124%; response vs control in vivo at 50 mg (leukemia P388; Mus musculus, P388, dose 50,00 mg as printed): 160%; response vs control in vivo at 100 mg (leukemia P388; Mus musculus, P388, dose 100,00 mg as printed): < 100%
Nc1cc2c3c(cccc3c1)C(=O)N(CCN1CCCC1)C2=O [Example 11]				T/C > 120 active		1.5 (≈ 4.85 µM)	6.5		response vs control in vivo at 24 mg/kg (leukemia P388; Mus musculus, P388, dose 24,20 mg/kg): 160%; response vs control in vivo at 48 mg/kg (leukemia P388; Mus musculus, P388, dose 48,39 mg/kg): 96%
Nc1cc2c3c(cccc3c1)C(=O)N(CCN1CCCCC1)C2=O [Example 12]	108	103	114	None dose tested	NONE	8.0 (≈ 24.7 µM)			
Nc1cc2c3c(cccc3c1)C(=O)N(CCN1CCOCC1)C2=O [Example 13]	102	102	109	None dose tested	NONE	10.0 (≈ 30.7 µM)			
O=C1c2cccc3cc(O)cc(c23)C(=O)N1CCN1CCOCC1 [Example 24]	110	117	127	T/C > 120 active		3.5 (≈ 10.7 µM)	240	107	
COc1cc2c3c(cccc3c1)C(=O)N(CCN(C)C)C2=O [Example 26]				T/C > 120 active		1.5 (≈ 5.03 µM)	18.9		
COc1cc2c3c(cccc3c1)C(=O)N(CCN1CCCC1)C2=O [Example 27]				None dose tested	NONE	0.75 (≈ 2.31 µM)			response vs control in vivo at 17 mg/kg (leukemia P388; Mus musculus, P388, dose 17,30 mg/kg): 112%; response vs control in vivo at 34 mg/kg (leukemia P388; Mus musculus, P388, dose 34,70 mg/kg): 116%; response vs control in vivo at 50 mg/kg (leukemia P388; Mus musculus, P388, dose 50,00 mg/kg): 100%; response vs control in vivo at 69 mg/kg (leukemia P388; Mus musculus, P388, dose 69,30 mg/kg): 116%; response vs control in vivo at 100 mg/kg (leukemia P388; Mus musculus, P388, dose 100,00 mg/kg): 101%; response vs control in vivo at 200 mg/kg (leukemia P388; Mus musculus, P388, dose 200,00 mg/kg): 100%; T/C % (leukemia P388; dose 138,60 mg/kg): Toxic
CCOC(=O)Nc1cc2c3c(cccc3c1)C(=O)N(CCN(C)C)C2=O [Example 28]				T/C > 120 active		10.0 (≈ 28.1 µM)	30	123	
CCOC(=O)Nc1cc2c3c(cccc3c1)C(=O)N(CCN1CCCC1)C2=O [Example 29]	131	135	158	T/C > 120 active		10.0 (≈ 26.2 µM)	30	127	
CC(=O)Nc1cc2c3c(cccc3c1)C(=O)N(CCN(C)C)C2=O [Example 30]	< 100			T/C > 120 active		4.0 (≈ 12.3 µM)	3.75		response vs control in vivo at 3.75 mg/kg (leukemia P388; Mus musculus, P388, dose 3,75 mg/kg): 137%; response vs control in vivo at 7 mg/kg (leukemia P388; Mus musculus, P388, dose 7,50 mg/kg): 144%; T/C % (leukemia P388; dose 120,00 mg/kg): Toxic.; T/C % (leukemia P388; dose 240,00 mg/kg): Toxic.
CC(=O)Nc1cc2c3c(cccc3c1)C(=O)N(CCN1CCCC1)C2=O [Example 31]	184	107		T/C > 120 active		5.0 (≈ 14.2 µM)	30	186	
